Assay results from US4798892A, “2-hydroxypropylamine heteroaryl ester derivatives” (priority 1986, dated 1989).
Counter-ions that a name gives are not always drawn.

Columns and labels:
[1] = Enzymatic hydrolysis of beta blockers by dog aqueous humor (procedure C); type: in vitro ADME; settings: for remaining at 1 h / remaining at 2 h: 37° C.; for remaining at 1 h: read-out: Percent drug remaining, dog aqueous humor, 1 HR; for remaining at 2 h: read-out: Percent drug remaining, dog aqueous humor, 2 HR
Method: (§1) Chemicals--Acetonitrile was "HPLC" grade. Distilled water was used to dissolve the compounds and 0.01N HCl was used to dissolve compounds requiring an acidic pH for dissolution.
(§2) Enzyme Source--Fresh aqueous humor was collected from eyes of dogs using a 23-gauge needle while fresh dog blood was collected into heparinized Vacutainer tubes. Fresh liver was homogenized in 0.9% NaCl using a Potter-Elvehjem Teflon pestle and glass homogenizer making a 25% (W/V) homogenate.
(§3) Incubation Condition--A 0.5 ml aliquot of dog aqueous humor, blood or liver homogenate was incubated with 12.5 μg (0.5 ml) of beta blocker in a Dubnoff shaking metabolic incubator at 37° C. for 60 and 120 min. Denatured tissue controls were prepared by adding 2.0 ml of acetonitrile into 0.5 ml of aqueous humor, blood or liver homogenate to destroy esterase activities prior to addition of the beta blockers. The controls were then incubated at 37° C. for 120 min. After 60 and 120 min, the incubations were terminated by addition of 2 ml of acetonitrile and immediately mixed by a Vortex® to stop esterase activities.
(§4) Sample Processing and Data Analyses--All samples were centrifuged at 4000 RPM for 10 min to sediment denatured proteins. The resultant supernatants were transferred to WISP® vials and analyzed using an HPLC assay developed for beta blockers. The hydrolysis of beta blockers by aqueous humor, blood and liver homogenate was determined by disappearance of the compounds. The extent of enzymatic hydrolysis by each tissue was determined by comparing the amount of each compound (absolute peak area) recovered at each time point to the amount of each compound (absolute peak area) in denatured tissue control and aqueous control samples. The results of these experiments are shown in Tabe III.

[2] = test system: beta adrenergic receptor (guinea pig trachea vs right atria); test: Degree of cardioselectivity in vitro, KB trachea/KB atria; settings: Table I; ratio greater than one indicates cardioselectivity
Method: Each tissue was suspended between a fixed glass rod and a Statham Universal Transducer connected to a Beckman recorder. Atria were allowed to beat spontaneously under a loading tension of approximately 0.5 gm. Intrinsic depressant or stimulant activity was determined for each compound by progressively increasing concentrations in the tissue baths at 60-minute intervals. Tissues were not washed between increments. The maximum concentration showing little or no cardiodepressant activity was chosen for blockade experiments. Changes in rate in response to isoproterenol, a standard β-receptor agonist, were measured in the absence and presence of test compounds. Spiral strips of guinea pig trachea were suspended under 5 gm resting tension and incubated with phentolamine, tropolone and cocaine. Active tension was generated by addition of carbachol (3.0×10^-7 M) and decreases in tension in response to isoproterenol were quantitated. Cumulative concentration-response curves were produced with isoproterenol both before and after 60-minute incubation of test compounds with atria and trachea. […] The blocking potency of test compounds was estimated by computing pA2 values (-log […]) by the method of Furchgott, the Pharmacological Differentiation of Adrenergie Receptors, Ann. […] The degree of cardioselectivity was estimated from the ratio, KB trachea/KB atria (10^(pA.sbsp.2^atria-pA.sbsp.2^trachea)). A ratio greater than one indicates cardioselectivity. Test drugs were dissolved in distilled water and added to the bath (30 ml) in a volume of 10 or 100 μl.

[3] = Enzymatic hydrolysis of beta blockers by dog liver homogenate (procedure C); type: in vitro ADME; settings: dog, liver homogenate, 37° C.; for remaining at 1 h: read-out: Percent drug remaining, dog liver homogenate, 1 HR; for remaining at 2 h: read-out: Percent drug remaining, dog liver homogenate, 2 HR
Method: as §1, §2, §3, §4

[4] = Half-lives of beta blockers in dog whole blood (procedure D); type: in vitro ADME; settings: 37° C., read-out: T1/2 dog blood
Method: (§5) The rate of disappearance of a compound is expressed as the half-life (T1/2), which is the time period in which one half of the initial amount of compound tested disappears. In each experiment, 1 ml of a solution containing 50 μg of the test compound was added to 1 ml of whole blood or 1 ml of a 33% (w/v) liver homogenate. The samples were incubated in a Dubnoff shaking metabolic incubator for 2.5, 5.0, 10.0, 20.0, 30.0 and 60.0 minutes at 37° C. At the designated time periods, the test mixtures were removed from the incubator and transferred to a 0° C. ice bath. Acetonitrile (2 ml) was immediately added and the mixtures were mixed to stop enzymatic hydrolysis. Zero time samples were prepared by adding 2 ml of acetonitrile to denature the proteins prior to addition of the test compounds. After centrifugation to sediment denatured proteins, 2 ml of the supernatant was removed and analyzed by high pressure liquid chromatography, using a mobile phase of 60% acetonitrile/40% 0.05 m sodium phosphate buffer (pH 6.6), a U.V. detector and Waters u Bondapak Phenyl column. The half life of each test compound was determined graphically by plotting the decrease in concentrations as a function of time.

[5] = target: T1, beta adrenergic receptor (guinea pig right atria) (Cavia porcellus, UniProt H0W3H1); test: Beta-blocking activity in vitro, guinea pig right atria (blockade of isoproterenol rate response); settings: Table I; guinea pig right atria, isoproterenol agonist, 60-minute incubation, 37° C.; read-out: PA2 Rt. Atria (converted)
T1 construct: guinea pig right atria and guinea pig tracheal strips mounted in a tissue bath; from tissue; host or cells: guinea pig right atria, spontaneously beating
T1 sequence (H0W3H1 1-470): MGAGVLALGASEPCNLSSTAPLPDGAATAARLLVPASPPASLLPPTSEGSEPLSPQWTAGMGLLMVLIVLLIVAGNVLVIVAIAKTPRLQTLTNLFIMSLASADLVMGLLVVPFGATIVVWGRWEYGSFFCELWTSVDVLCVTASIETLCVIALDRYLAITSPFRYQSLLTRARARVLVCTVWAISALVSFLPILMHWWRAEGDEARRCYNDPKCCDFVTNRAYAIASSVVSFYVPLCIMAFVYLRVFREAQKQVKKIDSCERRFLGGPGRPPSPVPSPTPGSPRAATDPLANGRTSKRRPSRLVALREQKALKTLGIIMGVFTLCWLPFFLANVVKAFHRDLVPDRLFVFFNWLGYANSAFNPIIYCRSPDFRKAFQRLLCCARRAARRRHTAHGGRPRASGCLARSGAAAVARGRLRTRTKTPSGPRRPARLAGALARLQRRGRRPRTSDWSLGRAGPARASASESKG

[6] = Enzymatic hydrolysis of beta blockers by dog blood (procedure C); type: in vitro ADME; settings: dog, blood, 37° C.; for remaining at 1 h: read-out: Percent drug remaining, dog blood, 1 HR; for remaining at 2 h: read-out: Percent drug remaining, dog blood, 2 HR
Method: as §1, §2, §3, §4

[7] = test system: beta adrenergic receptor (heart rate response to isoproterenol); test: Duration and potency of beta-blocking action in vivo, 3-hour infusion in pentobarbital-anesthetized dogs; parameters: species or system dog; settings: Table II; for Potency: infusion rate adjusted so isoproterenol inhibition averaged about 50% at end of 3-hour infusion; for % I (Percent inhibition of heart rate response to isoproterenol): isoproterenol 0.5 μg/kg bolus, 3-hour infusion
Method: The duration of β-blockade was determined in vivo using pentobarbital-anesthetized dogs instrumented for measurement of heart rate using a Beckman cardiotachometer triggered electronically by a phasic aortic blood pressure signal. Both vagus nerves were severed in the cervical region and the animals were mechanically ventilated. The experimental design used employed a 3-hour infusion of test compound. Bolus doses of isoproterenol (0.5 μg/kg) were used to assess the degree of β-blockade and recovery from β-blockade after […] of the infusion. The doses were spaced at 10-minute intervals and were given before, during and following the infusion of test compounds. The infusion rate was adjusted so that at the end of the 3-hour infusion period the degree of isoproterenol inhibition averaged about 50% of control. Following termination of blocker infusion, percent recovery from β-blockade was computed and the time associated with 80% recovery estimated.

[8] = Half-lives of beta blockers in dog liver homogenate (procedure D); type: in vitro ADME; settings: 33% (w/v) homogenate, 37° C., read-out: T1/2 dog liver homogenate
Method: as §5

[9] = Physician's Desk Reference, 35th Edition, 1981, p. 1233; cited from earlier work
[10] = after termination of 3-hour infusion

CC(C)(CNC(=O)N1CCOCC1)NCC(O)COC(=O)c1ccccc1F (stereo not drawn) [Example II, 3-[1,1-Dimethyl-2-(1-morpholinocarbonylamino)]ethylamino-2-hydroxypropyl 2-Fluorobenzoate Hydrochloride]
remaining at 1 h [1]: 58%
remaining at 2 h [1]: 32%
half-life ([1]; approximate value determined by procedure C, read-out: T1/2 dog aqueous humor): 60 to 120 min
metabolised at 1 h ([1]; one hour, read-out: hydrolyzed in aqueous humor after one hour): 42%
metabolised at 2 h ([1]; two hours, read-out: hydrolyzed in aqueous humor after two hours): 68%
Cardioselectivity KB (Trachea)/KB (Atria) [2]: 2
remaining at 1 h [3]: 0%
remaining at 2 h [3]: 0%
half-life [4]: 15 min
Kb [5]: 3.16 nM
remaining at 1 h [6]: 0%
remaining at 2 h [6]: 0%

CC(C)(CNC(N)=O)NCC(O)COC(=O)c1ccccc1F (stereo not drawn) [Example X, 3-[1,1-Dimethyl-2-(aminocarbonylamino)]ethylamino-2-hydroxypropyl 2-Fluorobenzoate]
remaining at 1 h [1]: 0%
remaining at 2 h [1]: 0%
remaining at 1 h [3]: 0%
remaining at 2 h [3]: 0%
half-life [4]: 15 min
Kb [5]: 20 nM
Recovery Time 80% [7, 10]: 21 min
Potency [7]: 0.7 mg/kg/180 min
% I (Percent inhibition of heart rate response to isoproterenol) [7]: 49%
remaining at 1 h [6]: 0%
remaining at 2 h [6]: 0%
half-life [8]: 2.5 min

CCOC(=O)NCC(C)(C)NCC(O)COC(=O)c1ccccc1F (stereo not drawn) [IX, 3-[1,1-Dimethyl-2-(ethoxycarbonylamino)]ethylamino-2-hydroxypropyl 2-Fluorobenzoate Hydrochloride]
remaining at 1 h [1]: 0%
remaining at 2 h [1]: 0%
remaining at 1 h [3]: 0%
remaining at 2 h [3]: 0%
half-life [4]: 8 min
Kb [5]: 79.4 nM
Recovery Time 50% [7, 10]: 3 ± 1 min
Recovery Time 80% [7, 10]: 8 ± 3 min
Potency [7]: 6.5 ± 1.8 mg/kg/180 min
% I (Percent inhibition of heart rate response to isoproterenol) [7]: 49 ± 4%
remaining at 1 h [6]: 0%
remaining at 2 h [6]: 0%
half-life [8]: 1 min

CC(C)(CNC(=O)Nc1ccccc1)NCC(O)COC(=O)c1ccccc1F (stereo not drawn) [XII, 3-[1,1-Dimethyl-2-(phenylaminocarbonylamino)]ethylamino-2-hydroxypropyl 2-Fluorobenzoate]
Cardioselectivity KB (Trachea)/KB (Atria) [2]: 5
Kb [5]: 79.4 nM

CC(C)(CNC(=O)N1CCOCC1)NCC(O)COC(=O)c1cc(O)cc(O)c1 (stereo not drawn) [XXXVIII, 3-[1,1-Dimethyl-2-(1-morpholinocarbonylamino)]ethylamino-2-hydroxypropyl 3,5-Dihydroxybenzoate Oxalate Hemihydrate]
Cardioselectivity KB (Trachea)/KB (Atria) [2]: 1
Kb [5]: 1 nM

CC(C)(C)NC[C@H](O)COc1nsnc1N1CCOCC1 [timolol maleate]
adverse reactions to topical use [9]: bronchospasm and heart failure, as well as cardiac conduction defects
